Source: US20240350493A1 (Kadmon Corporation, LLC, priority 2022, published 2024)
In brackets after ≈: the same amount, converted by molar mass. Entries after “also recorded” stand apart in the source; their conditions may differ. Where two headings read alike, the source gives them in different places.

Key:
[1] = target: T1, P-gp (Homo sapiens, UniProt P08183); test: transporter inhibition, in vitro; format: in vitro ADME; conditions: at clinically relevant concentrations
[2] = target: CYP3A4 (Homo sapiens, UniProt P08684); test: incubations with recombinant enzymes; format: in vitro ADME
[3] = target: CYP2C8 (Homo sapiens, UniProt P10632); test: incubations with recombinant enzymes; format: in vitro ADME
[4] = tested on: healthy male subjects; test: phase I drug-drug interaction study, safety and tolerability (Example 1); format: in vivo, human
Description: This was a single center, non-randomized, DDI study in 35 (Part 1) and 38 (Part 2) healthy males. The key inclusion criterion was males aged 18 to 55 years (inclusive). […] In Part 2, co-administration with omeprazole was studied. The study design is illustrated in FIG. 1.
At least a 2-to 8-day washout occurred between each period to account for a minimum of 5 half-lives of the active moieties dosed in the preceding period.
Safety and tolerability of belumosudil was the secondary endpoint of the study and was evaluated by AEs, vital signs, physical examinations, electrocardiograms (ECGs), and clinical laboratory tests. All subjects who received at least one dose of belumosudil or perpetrator compound were included in the safety population.

[5] = tested on: dogs; test: general toxicology studies, dogs; format: in vivo, dog
[6] = relative bioavailability/food effect study, tablet and capsule (KD025-106); format: in vivo, human; conditions: for AUC(0-t) / AUC(0-inf) / Cmax / Tmax / half-life: male, human, plasma, oral, 200 mg
Description: Both studies were single-center, open-label, randomized, single dose crossover studies in healthy males.
In the second, relative bioavailability/food effect study, both the marketed tablets and earlier formulation capsules were investigated.
For Treatments B and C, before dosing, subjects consumed a high-fat breakfast consisting of a hash brown, bacon, fried egg, white bread, and 240 mL of full fat milk over 25 minutes. […] All subjects were to receive each treatment, with at least a 6-day washout between each period. Water was permitted ad libitum in all study periods, besides for 1 hour pre-and post-dose.
In both studies, serial blood samples for PK analysis were collected at pre-dose and 1, 2, 4, 6, 8, 12, 16, 24, and 36 hours post-dose. An additional sample at 30 hours post-dose was collected in the first study; additional samples were collected 3, 5, and 48 hours post-dose in the second study. Blood samples (5-6 mL per sample) were collected in K3EDTA tubes on ice and were processed within 30 minutes of collection, then frozen at approximately-70 to −80° C. shortly after collection.
Sample preparation was performed by protein precipitation.
Statistical analyses were performed in SAS using the PROC MIXED procedure and the Restricted Maximum Likelihood estimation method. In both studies, the presence of a food effect was evaluated by a formal statistical analysis on natural log-transformed AUC and Cmax using mixed effect modeling techniques. The model included treatment, period, and sequence as fixed effects and subject nested within sequence as a random effect. Adjusted geometric mean ratios (GMRs) and their 90% confidence intervals (CIs) were calculated for fed (test) versus fasted (reference) treatments. The absence of a food effect was to be concluded if the 90% CI was within the bioequivalence limits of 80.00 to 125.00%.
To assess relative bioavailability between formulations in the second study, the same analysis was performed for tablets (test) versus capsules (reference), both in the fed state. For both studies, all subjects who received at least one dose of study drug and had post-dose PK data available were included in the PK population

[7] = target: CYP2C19 (Homo sapiens, UniProt P33261); test: enzyme inhibition, in vitro; format: in vitro ADME
[8] = tested on: pregnant rats; test: embryo-fetal development studies in rats; format: in vivo, rat
Description: In the pilot study, maternal toxicity and embryo-fetal developmental effects were observed. Maternal toxicity (reduced body weight gain) occurred at 150 and 300 mg/kg/day doses. Increased post-implantation loss occurred at 50 and 300 mg/kg/day.

[9] = target: human serum albumin (Homo sapiens, UniProt P02768); test: protein binding in vitro; format: in vitro ADME
[10] = pH-dependent solubility; format: physicochemical
[11] = target: OATPIB1 (Homo sapiens, UniProt Q9Y6L6); test: transporter inhibition, in vitro; format: in vitro ADME; conditions: at clinically relevant concentrations
[12] = target: T2, CYP1A2 (Homo sapiens, UniProt P05177); test: incubations with recombinant enzymes; format: in vitro ADME
[13] = target: UGT1A1 (Homo sapiens, UniProt P22309); test: enzyme inhibition, in vitro; format: in vitro ADME
[14] = target: T1, P-gp; test: transporter substrate, in vitro; format: in vitro ADME
[15] = target: CYP2D6 (Homo sapiens, UniProt P10635); test: enzyme inhibition, in vitro; format: in vitro ADME
[16] = target: T2, CYP1A2; test: enzyme inhibition, in vitro; format: in vitro ADME
[17] = 200 mg tablet, high-fat breakfast

T2 sequence (P05177 whole entry): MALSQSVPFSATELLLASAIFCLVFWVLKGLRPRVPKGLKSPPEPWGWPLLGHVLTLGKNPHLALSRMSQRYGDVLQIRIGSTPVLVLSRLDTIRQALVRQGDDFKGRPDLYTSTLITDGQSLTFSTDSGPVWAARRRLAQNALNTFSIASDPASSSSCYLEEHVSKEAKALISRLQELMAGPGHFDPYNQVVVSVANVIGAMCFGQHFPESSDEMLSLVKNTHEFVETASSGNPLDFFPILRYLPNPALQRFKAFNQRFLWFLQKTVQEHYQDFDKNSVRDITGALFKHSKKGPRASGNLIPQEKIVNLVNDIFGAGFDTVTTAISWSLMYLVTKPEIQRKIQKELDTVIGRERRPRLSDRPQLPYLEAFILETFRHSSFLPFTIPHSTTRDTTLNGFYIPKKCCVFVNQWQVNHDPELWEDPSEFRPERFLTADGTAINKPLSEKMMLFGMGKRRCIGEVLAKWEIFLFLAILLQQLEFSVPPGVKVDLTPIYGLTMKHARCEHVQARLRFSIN
T1 sequence (P08183 whole entry): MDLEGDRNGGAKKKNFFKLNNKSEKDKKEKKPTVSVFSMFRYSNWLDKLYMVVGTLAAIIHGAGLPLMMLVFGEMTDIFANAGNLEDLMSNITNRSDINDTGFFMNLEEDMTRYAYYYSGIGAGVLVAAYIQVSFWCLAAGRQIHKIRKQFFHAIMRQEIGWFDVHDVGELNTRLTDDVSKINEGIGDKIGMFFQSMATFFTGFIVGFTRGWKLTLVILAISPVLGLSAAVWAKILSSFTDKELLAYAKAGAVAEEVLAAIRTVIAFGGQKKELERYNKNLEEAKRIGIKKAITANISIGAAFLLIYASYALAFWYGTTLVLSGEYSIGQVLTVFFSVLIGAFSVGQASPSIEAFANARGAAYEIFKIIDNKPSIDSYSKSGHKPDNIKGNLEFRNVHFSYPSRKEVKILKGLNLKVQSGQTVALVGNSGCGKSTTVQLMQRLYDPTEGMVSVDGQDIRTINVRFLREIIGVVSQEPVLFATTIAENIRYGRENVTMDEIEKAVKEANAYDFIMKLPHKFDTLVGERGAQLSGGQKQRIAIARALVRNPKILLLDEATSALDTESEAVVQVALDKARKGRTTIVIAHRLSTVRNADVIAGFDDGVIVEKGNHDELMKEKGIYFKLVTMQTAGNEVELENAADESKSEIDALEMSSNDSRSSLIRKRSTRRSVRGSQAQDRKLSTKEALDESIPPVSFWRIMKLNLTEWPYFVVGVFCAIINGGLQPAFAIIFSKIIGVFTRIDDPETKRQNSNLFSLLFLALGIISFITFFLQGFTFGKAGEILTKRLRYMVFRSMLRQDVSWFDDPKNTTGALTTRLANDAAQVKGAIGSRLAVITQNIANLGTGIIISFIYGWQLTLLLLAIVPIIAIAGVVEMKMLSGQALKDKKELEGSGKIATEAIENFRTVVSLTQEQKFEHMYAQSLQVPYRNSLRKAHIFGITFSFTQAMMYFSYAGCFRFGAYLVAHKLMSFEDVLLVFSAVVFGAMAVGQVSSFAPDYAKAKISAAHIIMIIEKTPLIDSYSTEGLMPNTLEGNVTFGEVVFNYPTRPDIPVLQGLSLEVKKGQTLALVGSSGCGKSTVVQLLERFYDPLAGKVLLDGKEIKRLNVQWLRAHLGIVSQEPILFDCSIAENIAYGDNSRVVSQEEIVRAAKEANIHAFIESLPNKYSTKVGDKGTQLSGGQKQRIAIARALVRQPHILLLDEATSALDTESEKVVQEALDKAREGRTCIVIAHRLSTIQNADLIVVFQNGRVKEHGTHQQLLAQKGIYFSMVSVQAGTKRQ
Sequence of CYP3A4 (P08684 whole entry): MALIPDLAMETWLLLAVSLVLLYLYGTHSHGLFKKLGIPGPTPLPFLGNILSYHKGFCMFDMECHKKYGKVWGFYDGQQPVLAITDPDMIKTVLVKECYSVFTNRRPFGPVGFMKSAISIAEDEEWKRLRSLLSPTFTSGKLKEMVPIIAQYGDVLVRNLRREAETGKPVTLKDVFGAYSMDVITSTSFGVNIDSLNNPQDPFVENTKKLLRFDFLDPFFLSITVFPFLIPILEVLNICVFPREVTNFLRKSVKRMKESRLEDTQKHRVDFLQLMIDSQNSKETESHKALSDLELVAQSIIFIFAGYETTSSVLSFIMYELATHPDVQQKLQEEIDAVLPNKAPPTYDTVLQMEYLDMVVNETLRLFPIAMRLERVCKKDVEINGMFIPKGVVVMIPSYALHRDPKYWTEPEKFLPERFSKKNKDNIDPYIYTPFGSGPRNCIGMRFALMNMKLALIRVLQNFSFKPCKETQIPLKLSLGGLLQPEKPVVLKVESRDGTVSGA
Sequence of human serum albumin (P02768 25-609): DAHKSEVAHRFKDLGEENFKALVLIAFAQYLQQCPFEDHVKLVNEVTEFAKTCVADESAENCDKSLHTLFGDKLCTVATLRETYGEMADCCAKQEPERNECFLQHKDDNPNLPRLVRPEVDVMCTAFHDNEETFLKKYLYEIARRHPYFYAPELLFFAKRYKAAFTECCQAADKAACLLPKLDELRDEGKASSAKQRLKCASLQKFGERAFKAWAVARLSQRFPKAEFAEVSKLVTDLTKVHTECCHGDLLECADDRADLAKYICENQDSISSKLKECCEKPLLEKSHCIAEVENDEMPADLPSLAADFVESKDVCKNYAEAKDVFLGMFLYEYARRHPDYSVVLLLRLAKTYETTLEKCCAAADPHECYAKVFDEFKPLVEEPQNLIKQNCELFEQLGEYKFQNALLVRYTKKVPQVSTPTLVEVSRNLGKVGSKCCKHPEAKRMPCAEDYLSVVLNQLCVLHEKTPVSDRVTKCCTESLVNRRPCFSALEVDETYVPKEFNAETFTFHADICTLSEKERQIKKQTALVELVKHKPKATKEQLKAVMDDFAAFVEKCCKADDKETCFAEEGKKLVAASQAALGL
Sequence of CYP2D6 (P10635 whole entry): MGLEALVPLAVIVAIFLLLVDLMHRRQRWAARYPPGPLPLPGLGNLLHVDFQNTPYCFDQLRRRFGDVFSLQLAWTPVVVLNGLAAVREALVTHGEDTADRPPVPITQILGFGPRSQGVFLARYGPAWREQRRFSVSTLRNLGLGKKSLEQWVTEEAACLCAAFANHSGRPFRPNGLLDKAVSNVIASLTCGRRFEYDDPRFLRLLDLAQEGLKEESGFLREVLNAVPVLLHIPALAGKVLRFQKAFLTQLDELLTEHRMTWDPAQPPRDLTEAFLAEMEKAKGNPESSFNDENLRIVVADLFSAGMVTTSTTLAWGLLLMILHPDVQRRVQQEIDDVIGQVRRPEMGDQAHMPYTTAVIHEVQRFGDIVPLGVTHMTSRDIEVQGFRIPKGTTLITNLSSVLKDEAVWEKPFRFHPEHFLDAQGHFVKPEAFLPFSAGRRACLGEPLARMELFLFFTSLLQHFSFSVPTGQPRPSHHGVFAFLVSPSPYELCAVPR
Sequence of UGT1A1 (P22309 26-533): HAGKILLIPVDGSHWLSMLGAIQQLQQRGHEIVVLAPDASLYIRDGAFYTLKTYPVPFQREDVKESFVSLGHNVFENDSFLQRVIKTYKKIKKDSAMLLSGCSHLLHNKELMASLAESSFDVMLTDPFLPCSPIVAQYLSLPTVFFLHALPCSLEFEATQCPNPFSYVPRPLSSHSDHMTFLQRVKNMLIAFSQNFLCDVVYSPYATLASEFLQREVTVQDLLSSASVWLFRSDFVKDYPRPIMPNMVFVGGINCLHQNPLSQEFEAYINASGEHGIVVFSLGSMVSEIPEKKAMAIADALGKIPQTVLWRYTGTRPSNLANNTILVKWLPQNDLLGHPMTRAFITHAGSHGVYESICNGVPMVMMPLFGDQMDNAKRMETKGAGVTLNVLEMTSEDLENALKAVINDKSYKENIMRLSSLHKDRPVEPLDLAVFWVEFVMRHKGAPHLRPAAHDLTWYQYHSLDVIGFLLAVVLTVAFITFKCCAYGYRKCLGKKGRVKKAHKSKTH
Sequence of OATPIB1 (Q9Y6L6 whole entry): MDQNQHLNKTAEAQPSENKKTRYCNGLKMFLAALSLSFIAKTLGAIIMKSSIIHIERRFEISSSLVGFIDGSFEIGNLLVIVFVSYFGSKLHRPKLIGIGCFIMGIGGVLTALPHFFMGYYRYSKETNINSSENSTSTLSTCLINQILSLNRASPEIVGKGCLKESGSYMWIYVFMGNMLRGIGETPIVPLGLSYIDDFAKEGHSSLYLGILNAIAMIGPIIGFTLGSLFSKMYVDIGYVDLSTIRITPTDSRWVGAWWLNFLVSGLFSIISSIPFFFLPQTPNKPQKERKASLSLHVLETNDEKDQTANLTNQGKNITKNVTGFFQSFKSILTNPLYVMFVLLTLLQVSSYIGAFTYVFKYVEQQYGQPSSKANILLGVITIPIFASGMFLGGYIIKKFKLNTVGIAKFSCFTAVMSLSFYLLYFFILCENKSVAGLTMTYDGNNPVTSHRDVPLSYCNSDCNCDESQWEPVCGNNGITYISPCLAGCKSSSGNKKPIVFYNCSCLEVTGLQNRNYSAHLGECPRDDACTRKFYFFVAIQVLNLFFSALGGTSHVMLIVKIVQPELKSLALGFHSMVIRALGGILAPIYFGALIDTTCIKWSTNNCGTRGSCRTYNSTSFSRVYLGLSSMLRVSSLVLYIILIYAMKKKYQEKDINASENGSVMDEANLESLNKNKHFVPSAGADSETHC

CC(C)NC(=O)COc1cccc(-c2nc(Nc3ccc4[nH]ncc4c3)c3ccccc3n2)c1 [Belumosudil, 2-{3-[4-(1H-indazol-5-ylamino)-2-quinazolinyl]phenoxy}-N-(propan-2-yl) acetamide]
P-gp inhibition [1]: inhibits
share of belumosudil metabolism [2]: 41.9%
share of belumosudil metabolism [3]: 14.2%
treatment-emergent AEs (TEAEs) reported ([4]; Periods 1, 2, and 4): 33
AEs considered possibly related to belumosudil ([4]; all mild: abdominal distension, hot flush, fatigue): Three
serious AE (SAE) ([4]; ankle fracture after belumosudil+itraconazole, considered unrelated): One
subjects reporting gastrointestinal disorders ([4]; belumosudil alone): 3 subjects
subjects reporting gastrointestinal disorders ([4]; belumosudil+itraconazole): 5 subjects
deaths or AEs leading to subject withdrawal ([4]; in vivo): no deaths or AEs leading to subject withdrawal
safety profile ([4]; with and without perpetrator compounds): unremarkable; also recorded: safe, and no notable adverse events were reported
dose with spermatozoa degeneration [5]: 35 mg/kg/day
reduction of inter-subject variability in exposure with food ([6]; 200 mg tablet): approximately 60%
AUC% extrap, arithmetic mean (SD) ([6]; 200 mg tablet, fasted): 8.38 (9.05) %
AUC% extrap, geometric mean (geometric CV %) ([6]; 200 mg tablet, fasted): 6.02 (90.8); %
AUC% extrap, arithmetic mean (SD) ([6]; 200 mg tablet, fed): 1.71 (0.71) %
AUC% extrap, geometric mean (geometric CV %) ([6]; 200 mg tablet, fed): 1.55 (50.3); %
AUCinf fed as % of fasted [6, 17]: 180%
Cmax fed as % of fasted [6, 17]: 225%
AUC(0-t) ([6]; 200 mg tablet, fasted, read-out: AUC0-24, arithmetic mean (SD)): 5400 ng·h/mL
AUC(0-t) ([6]; 200 mg tablet, fasted, read-out: AUC0-24, geometric mean (geometric CV %)): 4250 ng·h/mL
AUC(0-inf) ([6]; 200 mg tablet, fasted, read-out: AUCinf, arithmetic mean (SD)): 6670 ng·h/mL
AUC(0-inf) ([6]; 200 mg tablet, fasted, read-out: AUCinf, geometric mean (geometric CV %)): 4910 ng·h/mL
AUC(0-t) ([6]; 200 mg tablet, fasted, read-out: AUClast, arithmetic mean (SD)): 5830 ng·h/mL
AUC(0-t) ([6]; 200 mg tablet, fasted, read-out: AUClast, geometric mean (geometric CV %)): 4520 ng·h/mL
Cmax ([6]; 200 mg tablet, fasted, read-out: Cmax, arithmetic mean (SD)): 1110 ng/mL
Cmax ([6]; 200 mg tablet, fasted, read-out: Cmax, geometric mean (geometric CV %)): 821 ng/mL
Tmax ([6]; 200 mg tablet, fasted, read-out: Tmax, median (range)): 2 h
half-life ([6]; 200 mg tablet, fasted, read-out: t1/2, arithmetic mean (SD) (converted)): 12.2 h
half-life ([6]; 200 mg tablet, fasted, read-out: t1/2, geometric mean (geometric CV %) (converted)): 11.2 h
AUC(0-t) ([6]; 200 mg tablet, fed, read-out: AUC0-24, arithmetic mean (SD)): 10600 ng·h/mL
AUC(0-t) ([6]; 200 mg tablet, fed, read-out: AUC0-24, geometric mean (geometric CV %)): 9580 ng·h/mL
AUC(0-inf) ([6]; 200 mg tablet, fed, read-out: AUCinf, arithmetic mean (SD)): 11300 ng·h/mL
AUC(0-inf) ([6]; 200 mg tablet, fed, read-out: AUCinf, geometric mean (geometric CV %)): 10100 ng·h/mL
AUC(0-t) ([6]; 200 mg tablet, fed, read-out: AUClast, arithmetic mean (SD)): 10800 ng·h/mL
AUC(0-t) ([6]; 200 mg tablet, fed, read-out: AUClast, geometric mean (geometric CV %)): 9750 ng·h/mL
Cmax ([6]; 200 mg tablet, fed, read-out: Cmax, arithmetic mean (SD)): 2320 ng/mL
Cmax ([6]; 200 mg tablet, fed, read-out: Cmax, geometric mean (geometric CV %)): 2100 ng/mL
Tmax ([6]; 200 mg tablet, fed, read-out: Tmax, median (range)): 2.5 h
half-life ([6]; 200 mg tablet, fed, read-out: t1/2, arithmetic mean (SD) (converted)): 7.59 h
half-life ([6]; 200 mg tablet, fed, read-out: t1/2, geometric mean (geometric CV %) (converted)): 6.98 h
Tmax ([6]; 200 mg tablet, read-out: delay in Tmax with fed administration): 0.5 h
exposure (Cmax and AUC) higher for tablet versus capsule ([6]; single dose 200 mg, fed state): 17-19%
CYP2C19 inhibition [7]: inhibitor
doses with fetal malformations ([8]; pilot study, oral, period of organogenesis): ≥ 50 mg/kg/day
maternal exposures (AUC) with adverse developmental outcomes, times human exposure at recommended dose ([8]; rat): ≥ 3 times
binding to human serum albumin [9]: 99.9%
solubility ([10]; pH 1.08, simulated gastric fluid): 11 µg/mL (≈ 24.3 µM)
solubility ([10]; pH 1.6, simulated gastric fluid): 1640 µg/mL (≈ 3630 µM)
solubility ([10]; pH 6.5, aqueous buffer): 3 µg/mL (≈ 6.63 µM)
solubility ([10]; simulated gastric fluid, pH 2.0): 1430 µg/mL (≈ 3170 µM)
OATPIB1 inhibition [11]: inhibits
share of belumosudil metabolism [12]: < 5%
UGT1A1 inhibition [13]: inhibitor
P-gp substrate [14]: substrate
CYP2D6 inhibition [15]: inhibitor
CYP1A2 inhibition [16]: inhibitor
